According to article PMC12396409, “Screening and hit evaluation of a microbial metabolite library against the pathogenic Plasmodium falciparum and Toxoplasma gondii parasites” (International Journal for Parasitology: Drugs and Drug …, 2025):
Where two headings read alike, the source gives them in different places.

How the values were obtained:
[1] = test system: T. gondii RH strain (RH-Tub-eYFP) tachyzoites; test: microbe, parasite or virus in culture; format: cell-based, Toxoplasma gondii; conditions: 72 h; for percent parasite growth at 2 µg/mL: Toxoplasma gondii
[2] = test system: P. falciparum 3D7 parasites; test: P. falciparum growth inhibition assay, 2-cycle (120 h treatment), delayed-death screen and dose-response; format: cell-based, Plasmodium falciparum; conditions: for activity at 2 µg/mL: Plasmodium falciparum
[3] = test system: P. falciparum 3D7 parasites; test: P. falciparum growth inhibition assay, 1-cycle (72 h treatment), SYBR DNA staining (library screen at 2 μg/mL and dose-response); format: cell-based, Plasmodium falciparum; conditions: for activity at 2 µg/mL: Plasmodium falciparum
[4] = library screen at 2 μg/mL, % growth, replicate 1, read-out: Tg_72h_%Growth_Rep1
[5] = library screen at 2 μg/mL, % growth, replicate 2, read-out: Tg_72h_%Growth_Rep2

Work on `CC[C@H]1C[C@@H]2CC[C@@H](O2)[C@@H](C)C(=O)O[C@H](C)C[C@H]2CC[C@H](O2)[C@H](C)C(=O)O[C@@H](C)C[C@@H]2CC[C@@H](O2)[C@@H](C)C(=O)O[C@H](C)C[C@H]2CC[C@H](O2)[C@H](C)C(=O)O1` [BIA-M1055] yielded a Tg_72h_%Growth_Rep1 ([1]; T. gondii, parasite screen at 2 μg/mL, % growth, replicate 1) of 3.56%, a Tg_72h_%Growth_Rep2 ([1]; T. gondii, parasite screen at 2 μg/mL, % growth, replicate 2) of 1.37% and a Pf_120h_%Growth_Rep1 ([2]; P. falciparum 3D7, 120 h, parasite screen at 2 μg/mL, % growth, replicate 1) of 15.60%. The Pf_120h_%Growth_Rep2 ([2]; P. falciparum 3D7, 120 h, parasite screen at 2 μg/mL, % growth, replicate 2) was 21.38%, the Pf_72h_%Growth_Rep1 ([3]; P. falciparum 3D7, 72 h, parasite screen at 2 μg/mL, % growth, replicate 1) was 7.23% and the Pf_72h_%Growth_Rep2 ([3]; P. falciparum 3D7, 72 h, parasite screen at 2 μg/mL, % growth, replicate 2) was 6.66%.

`C=CC(C)(C)c1[nH]cnc1/C=C1/NC(=O)[C@@H]2C[C@@]3(C(C)(C)C=C)c4ccccc4N[C@H]3N2C1=O` [Roquefortine E] was tested, and the Tg_72h_%Growth_Rep1 ([1]; T. gondii, parasite screen 2 μg/mL, % growth, replicate 1) was 75.06%, the Tg_72h_%Growth_Rep2 ([1]; T. gondii, parasite screen 2 μg/mL, % growth, replicate 2) was 97.61% and the Pf_120h_%Growth_Rep1 ([2]; P. falciparum, 120 h, parasite screen 2 μg/mL, % growth, replicate 1) was 14.59%. It also gave a Pf_120h_%Growth_Rep2 ([2]; P. falciparum, 120 h, parasite screen 2 μg/mL, % growth, replicate 2) of 17.38%, a Pf_72h_%Growth_Rep1 ([3]; P. falciparum, 72 h, parasite screen 2 μg/mL, % growth, replicate 1) of 11.66% and a Pf_72h_%Growth_Rep2 ([3]; P. falciparum, 72 h, parasite screen 2 μg/mL, % growth, replicate 2) of 6.85%.

Work on `O=[N+]([O-])c1ncc[nH]1` [Azomycin] yielded a percent parasite growth at 2 µg/mL [1, 4] of 77.1%, a percent parasite growth at 2 µg/mL [1, 5] of 71.1% and an activity at 2 µg/mL ([2]; 3D7, 120 h, library screen at 2 μg/mL, 120 h, % growth, replicate 1, read-out: Pf_120h_%Growth_Rep1) of 147%. It also gave an activity at 2 µg/mL ([2]; 3D7, 120 h, library screen at 2 μg/mL, 120 h, % growth, replicate 2, read-out: Pf_120h_%Growth_Rep2) of 91.9%, an activity at 2 µg/mL ([3]; 3D7, 72 h, library screen at 2 μg/mL, 72 h, % growth, replicate 1, read-out: Pf_72h_%Growth_Rep1) of 83.2% and an activity at 2 µg/mL ([3]; 3D7, 72 h, library screen at 2 μg/mL, 72 h, % growth, replicate 2, read-out: Pf_72h_%Growth_Rep2) of 88%.

Work on `O=c1cc(O)c2nccc3c4ccccc4n1c23` [BIA-H1963] yielded a Tg_72h_%Growth_Rep1 ([1]; T. gondii RH, library screen at 2 μg/mL, % growth, replicate 1) of 127.63%, a Tg_72h_%Growth_Rep2 ([1]; T. gondii RH, library screen at 2 μg/mL, % growth, replicate 2) of 85.33% and a Pf_120h_%Growth_Rep1 ([2]; P. falciparum 3D7, 120 h, library screen at 2 μg/mL, % growth, replicate 1) of 105.89%. For the same compound, the Pf_120h_%Growth_Rep2 ([2]; P. falciparum 3D7, 120 h, library screen at 2 μg/mL, % growth, replicate 2) was 107.63%, the Pf_72h_%Growth_Rep1 ([3]; P. falciparum 3D7, 72 h, library screen at 2 μg/mL, % growth, replicate 1) was 88.88% and the Pf_72h_%Growth_Rep2 ([3]; P. falciparum 3D7, 72 h, library screen at 2 μg/mL, % growth, replicate 2) was 124.49%.

`CC[C@H]1OC(=O)[C@H](C)C(=O)[C@H](C)[C@@H](O[C@@H]2O[C@H](C)C[C@H](N(C)C)[C@H]2O)[C@](C)(OC)C[C@@H](C)C(=O)[C@H](C)[C@H]2N(CCCCn3cnc(-c4cccnc4)c3)C(=O)O[C@]12C` [Telithromycin] showed a percent parasite growth at 2 µg/mL ([1]; T. gondii, screen at 2 μg/mL, replicate 1, read-out: Tg_72h_%Growth_Rep1) of 56.9%, a percent parasite growth at 2 µg/mL ([1]; T. gondii, screen at 2 μg/mL, replicate 2, read-out: Tg_72h_%Growth_Rep2) of 55.2% and an activity at 2 µg/mL ([2]; 3D7, P. falciparum, 120 h, screen at 2 μg/mL, replicate 1, read-out: Pf_120h_%Growth_Rep1) of 50.8%. The activity at 2 µg/mL ([2]; 3D7, P. falciparum, 120 h, screen at 2 μg/mL, replicate 2, read-out: Pf_120h_%Growth_Rep2) was 9.42%, the activity at 2 µg/mL ([3]; 3D7, P. falciparum, 72 h, screen at 2 μg/mL, replicate 1, read-out: Pf_72h_%Growth_Rep1) was 42.3% and the activity at 2 µg/mL ([3]; 3D7, P. falciparum, 72 h, screen at 2 μg/mL, replicate 2, read-out: Pf_72h_%Growth_Rep2) was 40.6%.

For `COC1=C2C[C@@H](C)C[C@H](OC)[C@H](O)[C@@H](C)/C=C(\C)[C@H](OC(N)=O)[C@@H](OC)/C=C\C=C(/C)C(=O)NC(=CC1=O)C2=O` [Geldanamycin], the percent parasite growth at 2 µg/mL [1, 4] was 24.8%, the percent parasite growth at 2 µg/mL [1, 5] was 24.3% and the activity at 2 µg/mL ([2]; 3D7, library screen at 2 μg/mL, 120 h, % growth, replicate 1, read-out: Pf_120h_%Growth_Rep1) was 25.5%. It also gave an activity at 2 µg/mL ([2]; 3D7, library screen at 2 μg/mL, 120 h, % growth, replicate 2, read-out: Pf_120h_%Growth_Rep2) of 11.8%, an activity at 2 µg/mL ([3]; 3D7, library screen at 2 μg/mL, 72 h, % growth, replicate 1, read-out: Pf_72h_%Growth_Rep1) of 5.26% and an activity at 2 µg/mL ([3]; 3D7, library screen at 2 μg/mL, 72 h, % growth, replicate 2, read-out: Pf_72h_%Growth_Rep2) of 2.63%.

Work on `CC(C)=C[C@H]1C[C@H](C)[C@]2(CC[C@]3(C)C[C@@H]4C(C)=CC(=O)[C@@H]4/C(C=O)=C\C[C@H]32)O1` [Anhydroophiobolin A] yielded a Tg_72h_%Growth_Rep1 ([1]; library screen at 2 μg/mL, % growth, replicate 1) of 154.62%, a Tg_72h_%Growth_Rep2 ([1]; library screen at 2 μg/mL, % growth, replicate 2) of 91.26% and a Pf_120h_%Growth_Rep1 ([2]; library screen at 2 μg/mL, 120 h, % growth, replicate 1) of 0.81%. It also gave a Pf_120h_%Growth_Rep2 ([2]; library screen at 2 μg/mL, 120 h, % growth, replicate 2) of -1.29%, a Pf_72h_%Growth_Rep1 ([3]; library screen at 2 μg/mL, 72 h, % growth, replicate 1) of 9.46% and a Pf_72h_%Growth_Rep2 ([3]; library screen at 2 μg/mL, 72 h, % growth, replicate 2) of 6.48%.

Work on `CC/C=C\[C@H](O)[C@H](O)C1=C(C)C(=O)[C@]2(O1)C(=O)N[C@@](OC)(C(=O)c1ccccc1)[C@@H]2O` [Pseurotin A] yielded a percent parasite growth at 2 µg/mL ([1]; T. gondii, parasite screen 2 μg/mL, % growth, replicate 1, read-out: Tg_72h_%Growth_Rep1) of 122%, a percent parasite growth at 2 µg/mL ([1]; T. gondii, parasite screen 2 μg/mL, % growth, replicate 2, read-out: Tg_72h_%Growth_Rep2) of 81% and an activity at 2 µg/mL ([2]; 3D7, P. falciparum, 120 h, parasite screen 2 μg/mL, % growth, replicate 1, read-out: Pf_120h_%Growth_Rep1) of 79.7%. For the same compound, the activity at 2 µg/mL ([2]; 3D7, P. falciparum, 120 h, parasite screen 2 μg/mL, % growth, replicate 2, read-out: Pf_120h_%Growth_Rep2) was 139%, the activity at 2 µg/mL ([3]; 3D7, P. falciparum, 72 h, parasite screen 2 μg/mL, % growth, replicate 1, read-out: Pf_72h_%Growth_Rep1) was 85.8% and the activity at 2 µg/mL ([3]; 3D7, P. falciparum, 72 h, parasite screen 2 μg/mL, % growth, replicate 2, read-out: Pf_72h_%Growth_Rep2) was 95.5%.
